The text below walks through data of patent publication US20120058133A1, “INHIBITION OF TRNA SYNTHETASES AND THERAPEUTIC APPLICATIONS THEREOF” (President and Fellows of Harvard College, priority 2009, published 2012).

Each structure is given as a SMILES string. Entries after “also recorded” stand apart in the source; their conditions may differ.

The subject of test [1] is STAT3 phosphorylation. Put plainly: STAT3 phosphorylation in developing Th17 cells. It counts as cell-based, mouse. The protocol:
FIG. 3. […] FIG. 3A is a set of representative histograms displaying the kinetics of STAT3 phosphorylation in developing Th17 cells treated with or without HF. Resting naïve T cells (grey, shaded peak), T cells activated in the presence of TGFβ plus IL-6 (TGFβ/IL-6) treated with 10 nM MAZ1310 (light gray trace), 5 nM HF (medium gray trace), or 10 nM HF (dark gray trace). T cells were fixed at the indicated times and intracellular phospho-STAT3 staining was performed.
FIG. 3B depicts western blot analysis of CD4^+ CD25^− T cells treated with 10 nM HF or 10 nM MAZ1310 and activated in the presence or absence of TGFβ plus IL-6. Whole cell lysates were generated at the indicated times following activation.
All cell surface staining was performed in FACS buffer (PBS/2% FBS/0.1% NaN3) and antibodies were incubated with cells on ice for 20-30 minutes. Cells were washed with FACS buffer and fixed with FACS buffer plus 1% paraformaldehyde prior to data acquisition. For phospho-STAT3 intracellular staining, stimulated T cells cultured with or without TGFβ plus IL-6 for the indicated times were harvested on ice and fixed in PBS plus 2% paraformaldehyde for 10 minutes at 37° C. Fixed cells were washed twice with staining buffer (PBS/1% BSA/0.1% NaN3) and then permeabilized with perm buffer III (BD Pharmingen) on ice for 30 minutes. Cells were then washed twice with staining buffer and PE-conjugated anti-STAT3 (pY705) (BD Pharmingen) was added per the manufacturer's instructions and incubated with cells at room temperature for 45-60 minutes. Cells were then washed and stored in staining buffer prior to data acquisition. Foxp3 intracellular staining was performed using a Foxp3 intracellular staining kit (eBioscience—San Diego, Calif.) in accordance with the manufacturer's instructions. […] All FACS data was acquired on a FACSCalibur flow cytometer (BD Pharmingen) and analyzed using FlowJo software (Treestar, Inc.—Ashland, Oreg.). […]

Test [2] concerns passive EAE in RAG2-deficient mice. The test can be described thus: Passive EAE (transfer of PLP-reactive T cells). The following applies: 2 μg HF daily i.p. The format is in vivo, mouse. An excerpt: The ability of systemic HF treatment to block IL-17 expression and associated autoimmune inflammation in vivo was examined using two distinct models of experimental autoimmune encephalomyelitis (EAE). […] The second model, a passive model of EAE induction, is initiated by the transfer of myelin proteolipid protein (PLP)-reactive T cells into lymphopenic hosts.
Passive EAE was induced by intravenous transfer of purified CD3^+ splenic T cells isolated from PLP TCR transgenic B10.S mice into syngeneic RAG2-deficient mice (3×10^6 cells/mouse) (Waldner et al., J. Clin. Invest. 113(7):990-997, 2004).
Mice were injected daily with HF (2 μg/mouse) or vehicle control (DMSO) i.p. Clinical signs of EAE were assessed according to the following score: 0, no signs of disease; 1, flaccid tail; 2, weak gait/hind limb paresis; 3, hind limb paralysis; 4, tetraplegia; 5, moribund. Cytokine production during EAE was determined either in peripheral T cells isolated from spleen or lymph nodes of mice prior to disease onset (day 6-10) or in mononuclear cells isolated from the brain and spinal cords of mice with severe disease (clinical score ≧2) between days 15-20. Briefly, splenocytes were stained for intracellular cytokines following erythrocyte lysis with ammonium chloride buffer. T cells were isolated from brain and spinal cords of mice with active EAE following perfusion with cold PBS. […]

In test [3] the test system is amino acid starvation response in splenocytes. The test can be described thus: In vivo AAR activation in splenocytes of HF-injected mice. Also on record: species or system mouse. The following applies: i.p. injection, 6 hours. The protocol:
FIG. 20F, left panel, depicts western blot analysis of protein from cells of wild-type mice injected i.p. with vehicle (DMSO) or […] HF. Spleens were harvested 6 hours post injection, red blood cells were removed by NH4Cl lysis buffer and immunoblotting for phosphorylated or total eIF2a was performed on whole cell extracts. FIG. 20F, right panel is a graph depicting levels of AAR-associated gene expression (Asns, Gpt2, eIF4Ebp1) analyzed by quantitative real-time PCR using cDNA from splenocytes of mice treated with DMSO or HF as above. Expression of AAR-associated transcripts were normalized to Hprt levels and data are presented as mean relative expression from duplicate samples ±SD. All data represent 2-3 similar experiments.

The test system of test [4] is luciferase. The test can be described thus: Standard luciferase assay. As to conditions: not shown. It counts as biochemical.
The subject of test [5] is TGFβ signaling. The following applies: literature reports; cited from earlier work.
The test system of test [6] is dermal ECM deposition. The following applies: Pines et al. 2003; cited from earlier work.
Test [7] relates to EAE and CIA. The following applies: mouse, in vivo; cited from earlier work.

Consider `O=C(CC1NCCCC1O)Cn1cnc2cc(Br)c(Cl)cc2c1=O` (racemic) [HF, halofuginone], for which the “time post activation at which STAT3 phosphorylation begins to decrease” value in test [1] is on record as “around 12 hours”. Besides, in test [1] (5-10 nM HF), the “STAT3 activation during the first 6 hours of Th17 differentiation” value is given as “did not interfere with STAT3 activation” and the “maintenance of STAT3 phosphorylation” value is listed as “decreased the maintenance of STAT3 phosphorylation”. The “disease in passive EAE model” value in test [2] was “kinetics and severity similar to control treated animals; also recorded: had no effect on an independent, passive model of EAE”. For the same compound, in test [3], the “eIF2α phosphorylation and AAR-associated transcripts in splenocytes ex vivo” value was “increased eIF2α phosphorylation and expression of AAR-associated transcripts”. Besides, the “direct effect on luciferase activity” value in test [4] was “no direct effect”. In addition, the “concentration at which HF can attenuate TGFβ signaling” value in test [5] is recorded as over 50 nM. Besides, the “dermal ECM deposition” value in test [6] is listed as “potently reduces dermal extracellular matrix (ECM) deposition; also recorded: reduces excess dermal ECM deposition”. The “activity in EAE and CIA models” value in test [7] was “active in these models”.
